This is an account of results in patent US5206415A, “Tricyclic steroid analogs” (priority 1991, dated 1993).

Test [1] concerns GABAA channels. The following applies: single channel; cited from earlier work.
The subject of test [2] is GABA currents. As to conditions: various CNS neurons, cited from earlier work.
Test [3] deals with picrotoxin site. The following applies: cited from earlier work.
In test [4] the test system is recombinant human GABAA receptors. The following applies: single channel recordings; cited from earlier work.
Test [5] relates to GABA receptor/chloride ionophore complex. The test is described as follows: Potentiation of GABA currents by tricyclic analogs (patch clamp, cultured hippocampal neurons). In kind it is cell-based, albino rat. As to conditions: 1 μM GABA, mean ± SEM (N). The procedure: (§1) Under halothane anesthesia, 1 day old albino rat pups are sacrificed by rapid decapitation and the hippocampi are dissected and dissociated with papain (1 mg/ml in oxygenated L-15 media for 30 min at 35° C.) and mechanical trituration (18). Cells are plated on collagen coated-culture dishes at a density of 300,000 cells/ml. The growth media consists of Eagles Minimal Essential Media (MEM) supplemented with 5% fetal calf serum, 5% horse serum, 17 mM glucose, 0.4 mM glutamine, 50 U/ml penicillin and 50 μg/ml streptomycin. After three days in culture cells are treated with 10 μM cytosine arabinoside (ARA-C) to suppress glial growth. Cells are subsequently fed with fresh media once per week.
(§2) For recording purposes the growth media is replaced with a solution containing (in mM): 140 NaCl, 5 KCl, 2 CaCl2, 1 MgCl2, 10 glucose, 10 HEPES, 0.001 tetrodotoxin, pH=7.3. Neurons are studied using patch clamp recording techniques (12) with pipettes containing (in mM): 145 CsCl, 5 BAPTA, 5 NaCl, 0.5 CaCl2, 2 MgATP, 10 HEPES, pH=7.3. This CsCl intracellular solution sets the Cl^-1 equilibrium potential (Ecl) at 0 mV (i.e. symmetric transmembrane concentrations of Cl^-). This allows reliable recording of Cl^-1 currents without concern for shifts in transmembrane Cl^-1 concentration which can alter GABA responses during longer agonist exposures (1). […]

Test [6] has the same test system. The test is described as follows: Direct Cl^- current activation (patch clamp, cultured hippocampal neurons). The format is cell-based, albino rat. As to conditions: numeric bound. The procedure:
as §1, §2

For test [7] the following is noted: cited from earlier work.
The test system of test [8] is rat synaptoneurosomes. As to conditions: cited from earlier work.
Test [9] deals with GABA-induced chloride currents. As to conditions: electrophysiological experiments; cited from earlier work.
The subject of test [10] is GABAA receptors. As to conditions: cultured hippocampal neurons; cited from earlier work.
Test [11] relates to GABA-mediated inhibitory synaptic responses. The following applies: olfactory cortical slices; cited from earlier work.
The test system of test [12] is GABA-gated channels. As to conditions: fluctuation analysis; cited from earlier work.
The test system of test [13] is GABAA receptors. As to conditions: cited from earlier work.
For test [14] the following is noted: in vivo; cited from earlier work.
The subject of test [15] is benzodiazepine receptors. As to conditions: several studies; cited from earlier work.
The subject of test [16] is GABA receptor channel complex. As to conditions: cited from earlier work.
The conditions of test [17]: two different animal models of anxiety; cited from earlier work.
The conditions of test [18]: rats; cited from earlier work.
Test [19] relates to GABA-mediated neuronal inhibition. As to conditions: cited from earlier work.

Counter-ions that a name gives are not always drawn. Like-named read-outs stand apart in the source and are kept apart here.

As for picrotoxin, the “opening frequency of the channels” value in test [1] is “decreasing the opening frequency of the channels”.
As for `CC(=O)C1CCC2C3CC=C4CC(OS(=O)(=O)O)CCC4(C)C3CCC12C` (stereo not shown) [pregnenolone sulfate], the GABA currents result is “inhibit GABA-induced chloride currents” in [2] and “inhibit GABA currents” in test [2] (listed as pregnenolone sulfate (PS)). Moreover, the TBPS binding entry in [3] is on record as “inhibits TBPS binding at the picrotoxin site”. Moreover, the “opening frequency of the channels” value in test [1] is recorded as “decreasing the opening frequency of the channels”.
As for `C[C@]12CC[C@H](OS(=O)(=O)O)CC1=CC[C@@H]1[C@@H]2CC[C@]2(C)C(=O)CC[C@@H]12` [dehydroepiandrosterone sulfate (DHEAS), dehydroepiandrosterone sulfate], the GABA currents entry in test [2] is reported as “inhibit GABA currents”. Besides, in test [3], the TBPS binding entry is given as “not DHEAS”.
Consider `CCCC(C)C1(CC)C(=O)NC(=O)NC1=O` (stereo not shown) [pentobarbital], for which the “channel open times and burst lengths / opening frequency” value in test [4] was “prolongs channel open times and burst lengths”.
As to `CC(=O)[C@H]1CC[C@H]2[C@@H]3CC[C@H]4C[C@H](O)CC[C@]4(C)[C@H]3CC[C@]12C` [Example 3α-OH-DHP, 3α-hydroxy-5α-pregnan-20-one], the “Potentiation of GABA currents, 0.1 μM” value in test [5] (0.1 μM compound) is 110 ± 5% of control response to. Further, the “Potentiation of GABA currents, 1.0 μM” value in test [5] (1.0 μM compound) is 195 ±16% of control response to. In addition, the “Concentration for Direct Cl^- Current Activation” value in test [6] was greater than 1 µM. The “channel open times and burst lengths / opening frequency” value in test [4] is reported as “increases the frequency of channel opening without altering the open times”. Further, the “activity in vivo as steroid anesthetics” value in test [7] is listed as “active in vivo as steroid anesthetics”. In addition, the “potentiation of muscimol-stimulated chloride uptake” value in [8] is given as “potentiators of muscimol-stimulated chloride uptake”. Also, the “potentiation of GABA-induced chloride currents” value in test [9] is on record as “potentiators of GABA-induced chloride currents”.
As for `CC(=O)[C@H]1CC[C@H]2[C@@H]3CC[C@H]4C[C@H](O)CC[C@]4(C)[C@H]3C(=O)C[C@]12C` [alphaxalone], in test [10], the “peak IPSC amplitude or rise time” value is reported as “without change in peak IPSC amplitude or rise time” and the “prolongation of IPSC decay” value was 5-8 fold. In addition, the “time course of GABA-mediated inhibitory synaptic responses” value in test [11] is given as “prolongs the time course of GABA-mediated inhibitory synaptic responses”. In [12], the “burst length of GABA-gated channels” value was “significantly prolongs the burst length of GABA-gated channels” and the single channel conductance result is listed as “without changing the single channel conductance”.
As to `CN1CCc2cc3c(cc2[C@H]1[C@@H]1OC(=O)c2c1ccc1c2OCO1)OCO3` [bicuculline], in test [13], the “block of steroid gated currents” value was “blocked”.
As to `CC(=O)[C@H]1CC[C@H]2[C@@H]3CCC4=CC(=O)CC[C@]4(C)[C@H]3CC[C@]12C` [progesterone], the “usefulness for treating premenstrual syndrome” value in test [14] is given as “often useful”.
In the case of `CCOC(=O)c1ncn2c1CN(C)C(=O)c1cc(F)ccc1-2` [R015-1788 (flumazenil)], the “effect on steroid responses” value in test [15] was “failed to find an effect”.
Turning to `C[C@]12CCC(=O)C=C1CC[C@@H]1[C@@H]2[C@@H](O)C[C@@]2(C)[C@H]1CC[C@]2(O)C(=O)CO` [Cortisol], the GABA-induced chloride currents result in [16] (nanomolar concentrations) is listed as “inhibits these same currents”; in test [16] (picomolar concentrations), “augments GABA-induced chloride currents”.
For the compound `CC(=O)[C@H]1CC[C@H]2[C@@H]3CC[C@@H]4C[C@H](O)CC[C@]4(C)[C@H]3CC[C@]12C` [3α-hydroxy-5β-pregnan-20-one], in [7], the “activity in vivo as steroid anesthetics” value is “active in vivo as steroid anesthetics”. Also, the “potentiation of muscimol-stimulated chloride uptake” value in test [8] is listed as “potentiators of muscimol-stimulated chloride uptake”. In addition, the “potentiation of GABA-induced chloride currents” value in test [9] is reported as “potentiators of GABA-induced chloride currents”.
Consider `C[C@]12CC[C@@H](O)C[C@@H]1CC[C@@H]1[C@@H]2CC[C@]2(C)[C@@H](C(=O)CO)CC[C@@H]12` [THDOC, 5α-pregnane-3α, 21-diol-20-one], for which the “anxiolytic and sedative activity” value in test [17] is “both anxiolytic and sedative activity”. Moreover, the “sleep induction and nonREM sleep” value in test [18] was “induce sleep and increase nonREM sleep”. Also, the GABA-mediated neuronal inhibition result in test [19] is “augment GABA-mediated neuronal inhibition”.
